Common to all, as to assay: relative viability (nuclei count vs DMSO), 5 days (fraction); higher = more cells survive
Compound in the assay “QS11 + Dasatinib”: C1CC2=C(C1)C=C(C=C2)OC3=NC(=C4C(=N3)N(C=N4)CC5=CC=C(C=C5)C6=CC=CC=C6)N[C@@H](CC7=CC=CC=C7)CO [QS11] + Cc1nc(Nc2ncc(C(=O)Nc3c(C)cccc3Cl)s2)cc(N2CCN(CCO)CC2)n1 [Dasatinib] (partner 0.075 µM)
In short, it runs like this:
(§1)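 One day after seeding in 1536-well plates, lung cancer cell lines were dosed by pin tool. Dosing was either single-drug or a fixed anchor-drug dose plus five library-drug doses (not always all listed) in √10 steps. After 5 days, nuclei were stained in one fix-and-stain step and counted on 4× images, and relative viability is the nuclei count of treated wells over that of vehicle wells, given as the median of duplicate plates.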

Compound in the assay “AZ628 + Palbociclib”: CC1=C(C=C(C=C1)NC(=O)C2=CC(=CC=C2)C(C)(C)C#N)NC3=CC4=C(C=C3)N=CN(C4=O)C [AZ628] + CC(=O)c1c(C)c2cnc(Nc3ccc(N4CCNCC4)cn3)nc2n(C2CCCC2)c1=O [Palbociclib] (partner 0.5 µM)
Put shortly: as §1

Compound in the assay “AZ628 + Navitoclax”: CC1=C(C=C(C=C1)NC(=O)C2=CC(=CC=C2)C(C)(C)C#N)NC3=CC4=C(C=C3)N=CN(C4=O)C [AZ628] + CC1(C)CCC(c2ccc(Cl)cc2)=C(CN2CCN(c3ccc(C(=O)NS(=O)(=O)c4ccc(N[C@H](CCN5CCOCC5)CSc5ccccc5)c(S(=O)(=O)C(F)(F)F)c4)cc3)CC2)C1 [Navitoclax] (partner 0.5 µM)
In short, it runs like this:
as §1

Compound in the assay “AZ628 + Pemetrexed”: CC1=C(C=C(C=C1)NC(=O)C2=CC(=CC=C2)C(C)(C)C#N)NC3=CC4=C(C=C3)N=CN(C4=O)C [AZ628] + Nc1nc2[nH]cc(CCc3ccc(C(=O)N[C@@H](CCC(=O)O)C(=O)O)cc3)c2c(=O)[nH]1 [Pemetrexed] (partner 0.2 µM)
In short, it runs like this:
as §1

From the supplement of paper PMC10307832 come the findings set out here.

As to NCI-H1650, the relative viability with QS11 + Dasatinib (first compound 0.08 µM) is 0.288; in the assay with QS11 + Dasatinib (first compound 0.253 µM) it was 0.27; in the assay with QS11 + Dasatinib (first compound 0.8 µM) it was 0.329; in the assay with QS11 + Dasatinib (first compound 2.53 µM) it was 0.308; in the assay with QS11 + Dasatinib (first compound 8 µM), 0.284; with AZ628 + Palbociclib (first compound 0.08 µM) it was 0.471. Besides, the relative viability was found to be 0.372 in the assay with AZ628 + Palbociclib (first compound 0.253 µM); 0.335 in the assay with AZ628 + Palbociclib (first compound 0.8 µM); 0.302 with AZ628 + Palbociclib (first compound 2.53 µM); 0.42 with AZ628 + Palbociclib (first compound 8 µM); 1.34 with AZ628 + Navitoclax (first compound 0.08 µM); 1.22 with AZ628 + Navitoclax (first compound 0.253 µM). In addition, the relative viability in the assay with AZ628 + Navitoclax (first compound 0.8 µM) is 1.38; with AZ628 + Navitoclax (first compound 2.53 µM) it was 1.15; in the assay with AZ628 + Navitoclax (first compound 8 µM), 0.949; with AZ628 + Pemetrexed (first compound 0.08 µM), 0.403; with AZ628 + Pemetrexed (first compound 0.253 µM), 0.386; with AZ628 + Pemetrexed (first compound 0.8 µM), 0.419. In addition, the relative viability stood at 0.431 with AZ628 + Pemetrexed (first compound 2.53 µM) and 0.38 with AZ628 + Pemetrexed (first compound 8 µM).

Consider NCI-H1651, for which the relative viability with QS11 + Dasatinib (first compound 0.08 µM) amounted to 0.486; in the assay with QS11 + Dasatinib (first compound 0.253 µM), 0.306; with QS11 + Dasatinib (first compound 0.8 µM), 0.333; in the assay with QS11 + Dasatinib (first compound 2.53 µM) it was 0.495; with QS11 + Dasatinib (first compound 8 µM) it was 0.291; in the assay with AZ628 + Palbociclib (first compound 0.08 µM), 0.544. Besides, the relative viability with AZ628 + Palbociclib (first compound 0.253 µM) stood at 0.536; with AZ628 + Palbociclib (first compound 0.8 µM), 0.529; with AZ628 + Palbociclib (first compound 2.53 µM) it was 0.562; with AZ628 + Palbociclib (first compound 8 µM), 0.625; with AZ628 + Navitoclax (first compound 0.08 µM), 1.07; with AZ628 + Navitoclax (first compound 0.253 µM), 1.02. Further, the relative viability is 1.2 with AZ628 + Navitoclax (first compound 0.8 µM); 1.25 with AZ628 + Navitoclax (first compound 2.53 µM); 1.1 with AZ628 + Navitoclax (first compound 8 µM); 0.632 in the assay with AZ628 + Pemetrexed (first compound 0.08 µM); 0.522 with AZ628 + Pemetrexed (first compound 0.253 µM); 0.563 with AZ628 + Pemetrexed (first compound 0.8 µM). Besides, the results for the relative viability in the assay with AZ628 + Pemetrexed (first compound 2.53 µM) and in the assay with AZ628 + Pemetrexed (first compound 8 µM) were 0.711 and 0.554, respectively.

NCI-H1666: the relative viability in the assay with QS11 + Dasatinib (first compound 0.08 µM) was 0.783; with QS11 + Dasatinib (first compound 0.253 µM), 0.839; with QS11 + Dasatinib (first compound 0.8 µM), 0.568; with QS11 + Dasatinib (first compound 2.53 µM) it was 0.583; with QS11 + Dasatinib (first compound 8 µM), 0.528; with AZ628 + Palbociclib (first compound 0.08 µM) it was 0.678. The relative viability with AZ628 + Palbociclib (first compound 0.253 µM) was found to be 0.666; with AZ628 + Palbociclib (first compound 0.8 µM) it was 0.683; in the assay with AZ628 + Palbociclib (first compound 2.53 µM), 0.71; with AZ628 + Palbociclib (first compound 8 µM), 0.685; with AZ628 + Navitoclax (first compound 0.08 µM), 0.865; in the assay with AZ628 + Navitoclax (first compound 0.253 µM), 0.771. Also, the relative viability in the assay with AZ628 + Navitoclax (first compound 0.8 µM) came to 0.728; with AZ628 + Navitoclax (first compound 2.53 µM), 0.772; in the assay with AZ628 + Navitoclax (first compound 8 µM), 0.513; in the assay with AZ628 + Pemetrexed (first compound 0.08 µM), 0.788; in the assay with AZ628 + Pemetrexed (first compound 0.253 µM), 0.79; with AZ628 + Pemetrexed (first compound 0.8 µM) it was 0.766. In addition, the figures for the relative viability with AZ628 + Pemetrexed (first compound 2.53 µM) and in the assay with AZ628 + Pemetrexed (first compound 8 µM) were 0.788 and 0.715, respectively.

For the cell line NCI-H1734, the relative viability turned out to be 0.449 with QS11 + Dasatinib (first compound 0.08 µM); 0.509 with QS11 + Dasatinib (first compound 0.253 µM); 0.504 with QS11 + Dasatinib (first compound 0.8 µM); 0.481 with QS11 + Dasatinib (first compound 2.53 µM); 0.597 with QS11 + Dasatinib (first compound 8 µM); 0.367 with AZ628 + Palbociclib (first compound 0.08 µM). Moreover, the relative viability with AZ628 + Palbociclib (first compound 0.253 µM) amounted to 0.301; in the assay with AZ628 + Palbociclib (first compound 0.8 µM), 0.299; with AZ628 + Palbociclib (first compound 2.53 µM) it was 0.319; with AZ628 + Palbociclib (first compound 8 µM), 0.225; with AZ628 + Navitoclax (first compound 0.08 µM), 0.864; in the assay with AZ628 + Navitoclax (first compound 0.253 µM) it was 0.718. Further, the relative viability with AZ628 + Navitoclax (first compound 0.8 µM) worked out at 0.818; in the assay with AZ628 + Navitoclax (first compound 2.53 µM) it was 0.791; with AZ628 + Navitoclax (first compound 8 µM), 0.502; with AZ628 + Pemetrexed (first compound 0.08 µM) it was 0.375; in the assay with AZ628 + Pemetrexed (first compound 0.253 µM), 0.423; in the assay with AZ628 + Pemetrexed (first compound 0.8 µM), 0.397. The relative viability with AZ628 + Pemetrexed (first compound 2.53 µM) is 0.391; in the assay with AZ628 + Pemetrexed (first compound 8 µM), 0.34.
